According to patent publication US20030181446A1, “Novel N-acylated heterocycles” (Recordati S.A., priority 2001, published 2003):

Legend:
[1] = target: T1, human 5HT1A-serotonergic receptor (Homo sapiens, UniProt P08908); test: Radioligand binding to recombinant 5-HT1A receptors; details: 1 nM [3H]8-OH-DPAT, membranes of HeLa cells transfected with human 5HT1A receptor; Ki from IC50 by Cheng & Prusoff; read-out: Binding affinity for 5HT1A receptors, Ki
T1 construct: expressed in transfected cells; cell membranes
T1 sequence (P08908 1-422): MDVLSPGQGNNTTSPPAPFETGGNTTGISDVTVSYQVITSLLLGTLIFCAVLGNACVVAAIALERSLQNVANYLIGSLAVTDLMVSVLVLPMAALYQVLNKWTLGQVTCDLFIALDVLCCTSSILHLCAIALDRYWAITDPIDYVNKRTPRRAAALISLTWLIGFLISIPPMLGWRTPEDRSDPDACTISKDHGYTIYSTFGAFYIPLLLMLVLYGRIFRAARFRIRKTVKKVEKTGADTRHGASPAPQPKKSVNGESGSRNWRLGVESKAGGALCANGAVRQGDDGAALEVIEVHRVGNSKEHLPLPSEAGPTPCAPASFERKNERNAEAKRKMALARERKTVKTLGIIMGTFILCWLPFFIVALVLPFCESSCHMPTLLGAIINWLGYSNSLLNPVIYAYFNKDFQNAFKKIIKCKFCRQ
Method: Genomic clone G-21 coding for the human 5HT1A-serotonergic receptor was stably transfected in a human cell line (HeLa). HeLa cells were grown as monolayers in Dulbecco's modified Eagle medium (DMEM), containing 10% foetal bovine serum, gentamicin ([…]) and 5% carbon dioxide, at 37° C. The cells were detached from the growth flask at 95% confluence by a cell scraper and were lysed in cold 5 mM Tris and 5 mM EDTA buffer (pH 7.4). The homogenates were centrifuged at 40000×g×20 minutes and the pellets were resuspended in a small volume of cold 5 mM Tris and 5 mM EDTA buffer (pH 7.4) and immediately frozen and stored at −70° C. until use. On the day of experiment, the cell membranes were resuspended in incubation buffer: 50 mM Tris HCl (pH 7.4), 2.5 mM MgCl2, […] (Fargin et al., Nature 335, 358-360, 1988). […] Non-specific binding was determined in the presence of 10 μM 5-HT. […]
The affinity of the tested compounds was evaluated as inhibition of specific binding of the radioligand to 5-HT1A receptors (IC50) by using the non-linear curve-fitting program Allfit (De Lean et al., Am. J. Physiol. 235, E97-E102 (1978). The IC50 value was converted to an affinity constant (Ki) by the equation of Cheng & Prusoff (Cheng Y. C., Prusoff W. H., Biochem. Pharmacol. 22, 3099-3108 (1973)).

[2] = test system: bladder volume capacity (BVC) and micturition pressure (MP); test: Effect on cystometric parameters in conscious rats after oral administration; type: in vivo, rat; details: 3 mg/kg p.o., 1-5 h after treatment, versus vehicle
Method: Male Sprague-Dawley rats [Crl: CD° (SD) BR] of 300-400 g supplied by Charles River Italia were used. The animals were housed with free access to food and water and maintained on a forced 12-hour-light/12-hour-dark cycle at 22-24° C. of temperature, except during the experiment. To quantify urodynamic parameters in conscious rats, cystometrographic studies were performed according to the procedure previously reported (Guarneri et al., Pharmacol. Res. 24: 175, 1991).
Briefly, the rats were anaesthetised by intraperitoneal administration of 3 ml/kg of Equithensin solution (pentobarbital 30 mg/kg and chloral hydrate 125 mg/kg) and placed in a supine position. An approximately-10-mm-long midline incision was made in the shaved and cleaned abdominal wall. The urinary bladder was gently freed from adhering tissues, emptied and then cannulated via an incision in the bladder body, using a polyethylene cannula (0.58-mm internal diameter, 0.96-mm external diameter) which was permanently sutured with silk thread. The cannula was exteriorised through a subcutaneous tunnel in the retroscapular area, where it was connected to a plastic adapter in order to avoid the risk of removal by the animal. For drug testing, the rats were utilised one day after implantation.
On the day of the experiment, the rats were placed in modified Bollman cages, i.e. restraining cages that were large enough to permit the rats to adopt a normal crouched posture, but narrow enough to prevent turning around. […] The intraluminal-pressure signal during infusion of saline into the bladder was continuously recorded on a polygraph (Rectigraph-8K San-ei with BM614/2 amplifier from Biomedica Mangoni) and, from the cystometrogram, two urodynamic parameters were evaluated: bladder volume capacity (BVC) and micturition pressure (MP). […] Basal BVC and MP values were evaluated as mean of the values observed in the cystometrograms recorded in an initial period of 30-60 minutes. […] The bladder infusion restarted and changes in BVC and MP were evaluated from the mean values obtained in the cystometrograms observed during 1, 2, 3, 4 and 5 hours after treatment. […]
All data were expressed as mean±standard error. Time-course data were analysed by S.A.S./STAT software, version 6.12. The difference between vehicle and active-treatment effect was evaluated by: General Linear Model Procedure—Repeated Measures Analysis of Variance: Univariate test of Hypotheses for within Subject Effects—Analysis of Variance of Contrast Variables. […]

[3] = test system: rhythmic bladder-voiding contractions; test: Effects on rhythmic bladder-voiding contractions induced by bladder filling in anaesthetised rats; type: in vivo, rat; details: intravenous administration
Method: Female Sprague-Dawley rats weighing 225-275 g (Crl: CDo Br, Charles River Italia) were used. The animals were housed with free access to food and water and maintained on a forced 12-hour alternating light-dark cycle at 22-24° C. for at least one week, except during the experiment. The activity on rhythmic bladder voiding contractions was evaluated according to the method of Dray (Dray J., Pharmacol. Methods, 13:157, 1985), with some modifications as in Guarneri (Guarneri, Pharmacol. Res. 27:173, 1993). Briefly, the rats were anaesthetised by subcutaneous injection of 1.25 g/kg (5 ml/kg) urethane, after which the urinary bladder was catheterised via the urethra using PE 50 polyethylene tubing filled with physiological saline. […]
From the cystometrogram, the number of contractions recorded 15 minutes before (basal values) and after treatment, as well as the mean amplitude of these contractions (mean height of the peaks in mmHg), was evaluated.
Since most compounds produced an effect that was relatively rapid in onset and led to a complete cessation of bladder contractions, bioactivity was conveniently estimated by measuring the duration of bladder quiescence (i.e. the length of the time during which no contractions occurred). The number of tested animals showing a reduction in the number of contractions higher than 30% of that observed in the basal period was recorded too. […]

1-(2-Ethylbutanoyl-1,2,3,4-tetrahydroquinoline-2-ylmethyl)-4-(4-indolyl)-piperazine [Example 24A]
Ki [1]: 12.9 nM

CC(C)Oc1cc(Cl)ccc1N1CCN(CC2CCc3ccccc3N2C(=O)C2CCCCC2)CC1 (centres unmarked) [Example 60A]
Ki [1]: 10.1 nM

O=C(C1CCCCC1)N1c2ccccc2CCC1CN1CCN(c2cccc3[nH]ccc23)CC1 (racemic) [Example 1, 1-(1-Cyclohexanecarbonyl-1,2,3,4-tetrahydroquinoline-2-ylmethyl)-4-(4-indolyl)piperazine]
bladder volume capacity (BVC) change (in words) [2]: effective in increasing the bladder volume capacity
micturition pressure (MP) change (in words) [2]: without significant effects on micturition pressure

CCN(CC)CC#CCOC(=O)C(O)(c1ccccc1)C1CCCCC1 (centres unmarked) [Oxybutynin, oxybutynin]
cessation of bladder contractions (in words) [3]: does not cause cessation of bladder contractions
effect on amplitude of the contractions (in words) [3]: only decreased the amplitude of the contractions in a dose-related manner
bladder volume capacity (BVC) change (in words) [2]: slight, not-significant increase of BVC
micturition pressure (MP) change (in words) [2]: greatly reduced the micturition pressure values
